Experimental data reported in patent US20050014788A1, “Piperidine derivatives and their use as modulators of chemokine receptor activity (especially ccr5)” (priority 2001, published 2005).
Structures can show the parent of a compound that is named as a salt. Where two headings read alike, the source gives them in different places.

Target: recombinant human CCR5 receptor (Homo sapiens, UniProt P51681)
Assay: MIP-1α radioligand binding assay (scintillation proximity), CHO cell membranes
Conditions: displacement of 0.1 nM iodinated MIP-1α, CHO membranes with recombinant human CCR5, average if tested more than once
Description: The ability of compounds to inhibit the binding of MIP-1 α was assessed by an in vitro radioligand binding assay. Membranes were prepared from Chinese hamster ovary cells which expressed the recombinant human CCR5 receptor. These membranes were incubated with 0.1 nM iodinated MIP-1α, scintillation proximity beads and various concentrations of the compounds of the invention in 96-well plates. The amount of iodinated MIP-1α bound to the receptor was determined by scintillation counting.
In Table II the results are presented as Pic50 values. […] (that is 1×10^−6 M) gives a Pic50 of 6.

[1] = negative log (base 10) of IC50 (M), read-out: Pic50 (converted)
[2] = Pic50, negative log (base 10) of IC50 (M)

recombinant human CCR5 receptor, sequence (P51681 whole entry): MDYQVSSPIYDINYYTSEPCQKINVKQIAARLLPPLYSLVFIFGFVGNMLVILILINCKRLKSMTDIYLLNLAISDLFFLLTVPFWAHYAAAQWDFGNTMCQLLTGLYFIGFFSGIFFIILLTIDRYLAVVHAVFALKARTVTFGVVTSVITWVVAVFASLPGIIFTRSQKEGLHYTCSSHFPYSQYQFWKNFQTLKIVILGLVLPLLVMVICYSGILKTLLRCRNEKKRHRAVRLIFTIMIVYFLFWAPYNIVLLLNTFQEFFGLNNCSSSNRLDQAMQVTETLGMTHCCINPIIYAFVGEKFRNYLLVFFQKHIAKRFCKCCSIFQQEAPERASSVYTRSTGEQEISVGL

SMILES | IC50 [1] [M] | further results
CCN(C(=O)Cc1ccc(S(C)(=O)=O)cc1)C1CCN(CCC(c2ccccc2)c2ccc(SC)cc2)CC1 (stereo not shown) [Compound No. 41, N-[1-(3-phenyl-3-[4-methanethiophenyl]propyl)-piperidin-4-yl]-N-ethyl-4-methanesulfonylphenylacetamide] | 1.17e-08 | –
CCN(C(=O)Cc1ccc(S(C)(=O)=O)cc1)C1CCN(CCC(c2ccc(NC(=O)OC(C)(C)C)cc2)c2cccc(F)c2)CC1 (stereo not shown) [Compound No. 43, N-[1-(3-[3-fluorophenyl]-3-[4-Boc-aminophenyl]propyl)-piperidin-4-yl]-N-ethyl-4-methanesulfonylphenylacetamide] | – | Pic50 (negative log (base 10) of IC50 (M)): 7.05
CCN(C(=O)Cc1ccc(S(C)(=O)=O)cc1)C1CCN(CCC(c2ccc(N)cc2)c2cccc(F)c2)CC1 (stereo not shown) [Compound No. 44, N-[1-(3-[3-fluorophenyl]-3-[4-aminophenyl]propyl)-piperidin-4-yl]-N-ethyl-4-methanesulfonylphenylacetamide hydrochloride] | 1.05e-07 | –
CCN(C(=O)Cc1ccc(S(C)(=O)=O)cc1)C1CCN(CCC(c2ccc(NS(C)(=O)=O)cc2)c2cccc(F)c2)CC1 (stereo not shown) [Compound No. 49] | 6.17e-09 | –
CCN(C(=O)Cc1ccc(S(C)(=O)=O)cc1)C1CCN(CC[C@@H](c2ccccc2)c2ccc(S(C)(=O)=O)cc2)CC1 [Compound No. 50, (S)-N-[1-{3-phenyl-3-(4-methanesulfonylphenyl)propyl}-4-piperidinyl]-N-ethyl-4 methanesulfonylphenylacetamide] | – | IC50 [2]: 8.13e-10 M
CCN(C(=O)Cc1ccc(S(C)(=O)=O)cc1)C1CCN(CC[C@H](c2ccc(S(C)(=O)=O)cc2)c2ccc(F)c(F)c2)CC1 [Compound No. 54, (R)-N-[1-{3-(3,4-fluorophenyl)-3-(4-methanesulfonylphenyl)propyl}-4-piperidinyl]-N-ethyl-4-methanesulfonylphenylacetamide hydrochloride] | – | IC50 [2]: 2.14e-08 M
CCN(C(=O)Cc1ccc(S(C)(=O)=O)cc1)C1CCN(CCC(c2ccccc2)c2ccc(NS(=O)(=O)c3ccccc3)cc2)CC1 (stereo not shown) [compound 28] | 8.51e-07 | –
CCN(C(=O)Cc1ccc(S(C)(=O)=O)cc1)C1CCN(CCC(c2ccccc2)c2ccc(NC(=O)NC(C)C)cc2)CC1 (stereo not shown) [compound 42] | 1.32e-08 | –
CCN(C(=O)Cc1ccc(S(C)(=O)=O)cc1)C1CCN(CCC(c2ccc(NC(C)=O)cc2)c2cccc(F)c2)CC1 (stereo not shown) [compound 45] | 3.63e-09 | –
CCN(C(=O)Cc1ccc(S(C)(=O)=O)cc1)C1CCN(CCC(c2ccc(NS(C)(=O)=O)cc2)c2cccc(F)c2)CC1 (stereo not shown) [compound 46] | 9.12e-09 | –
CCN(C(=O)Cc1ccc(S(C)(=O)=O)cc1)C1CCN(CCC(c2ccc(NC(=O)c3ccc(S(C)(=O)=O)cc3)cc2)c2cccc(F)c2)CC1 (stereo not shown) [compound 47] | 3.47e-08 | –
CCN(C(=O)Cc1ccc(S(C)(=O)=O)cc1)C1CCN(CC[C@H](c2ccc(S(C)(=O)=O)cc2)c2cccc(F)c2)CC1 [compound 51] | – | IC50 [2]: 3.72e-10 M
CCN(C(=O)Cc1ccc(S(C)(=O)=O)cc1)C1CCN(CCC(c2ccccc2)c2ccc([S+](C)[O-])cc2)CC1 (stereo not shown) [compound 75] | 1.38e-08 | –
